Experimental data: PMC8076852 (Frontiers in Molecular Biosciences, 2021)

Experiments:
R1C3 = test system: T1, R1C3
T1 construct: gene speG

R1C2 = test system: T2, R1C2
T2 construct: gene speG

R3C2 = test system: T3, R3C2
T3 construct: gene speG

R1C1 = test system: T4, R1C1
T4 construct: gene speG

NCCCNCCCCNCCCN = assay: purified protein; conditions: pH 8.0; 37.0 °C

Compound	Km (R1C3) [µM]	Km (R1C2) [µM]	Km (R3C2) [µM]	Km (R1C1) [µM]	K0.5 (NCCCNCCCCNCCCN) [mM]
NCCCNCCCCNCCCN [spermine]	244 ± 20	364 ± 8	98 ± 8	2530 ± 710	–
(Vibrio cholerae O1 biovar El Tor str. N16961)	–	–	–	–	0.222 ± 0.005
